How the values were obtained:
[1] = test system: CCRF-CEM; test: CellTiterGlo viability assay, initial screening; assay type: cell-based; conditions: Homo sapiens, 72 h, read-out: IC50 (relative IC50)
Description: (§1) In vitro viability assays were performed to assess the effects of compounds on cell viability in 7 selected cell lines over 72 hr using the CellTiterGlo (CTG, Promega-G7573) assay. The tests were performed in duplicates with treatment of compounds at 9 points, 3.16 folds titration in 96 well plates over ˜72 hr. The compound starting concentrations were […]. Cell viability assay using CellTiterGlo in 96-well plate were performed. The compound treatment was 72 hrs, under standard growth conditions, and in duplicate. Compounds were dissolved to 40 mM with thawed […]. Compounds were serially diluted at 3.16 fold in thawed DMSO, and warmed to 37° C. before being dissolved in media (2 μl+200 μl). After compounds were dissolved in media (media was also warmed to 37° C.). Media containing compounds were warmed to 37° C. in incubator and then compounds in media were added to cell plates (50 μl+50 μl), in duplicates. The compounds final concentrations were from […] to 19.9 nM. All compound solubilities were checked and recorded again, then the plates were transferred to CO2 tissue culture incubator immediately and incubated for 3 days. DMSO final concentration is 0.5%.

[2] = test system: HL-60; test: CellTiterGlo viability assay, initial screening; assay type: cell-based; conditions: Homo sapiens, HL-60, 72 h, read-out: IC50 (relative IC50)
Description: as §1

[3] = test system: HepG2; test: CellTiterGlo viability assay, initial screening; assay type: cell-based; conditions: Homo sapiens, HepG2, 72 h, read-out: IC50 (relative IC50)
Description: as §1

[4] = test system: K562; test: CellTiterGlo viability assay, initial screening; assay type: cell-based; conditions: Homo sapiens, K562, 72 h, read-out: IC50 (relative IC50)
Description: as §1

[5] = test system: KG-1; test: CellTiterGlo viability assay, initial screening; assay type: cell-based; conditions: Homo sapiens, KG-1, 72 h, read-out: IC50 (relative IC50)
Description: as §1

[6] = test system: MCF-7; test: CellTiterGlo viability assay, initial screening; assay type: cell-based; conditions: Homo sapiens, MCF7, 72 h, read-out: IC50 (relative IC50)
Description: as §1

[7] = test system: MOLT-4; test: CellTiterGlo viability assay, initial screening; assay type: cell-based; conditions: Homo sapiens, MOLT-4, 72 h, read-out: IC50 (relative IC50)
Description: as §1

[8] = test system: CCRF-CEM (TdT positive CEM); test: ATP (ViaLight plus) cytotoxicity assay; assay type: cell-based, Human; conditions: CEM (TdT+ve)
Description: (§2) Certain compounds of the invention were subjected to further studies to test the cytotoxic activity of certain compounds of the invention and also to measure their activity against 4 haematological cancer cell lines • TdT positive CEM (Human ALL) • TdT negative K562 (Human CML) • TdT negative H1-60 (Human ANLL) • RL (CRL-2261) non-HD lymphoma • The concentrations of the active metabolite dATP (Cordycepin triphosphate) in these cell lines was also measured. • The cytotoxic activity and the intracellular 3′-dATP concentrations were also studied in the presence of hENT1, Adenosine Kinase (AK) and Adenosine Deaminase pharmacological inhibitors in CEM and RL cancer cell lines. Said inhibitors that mimic known cancer resistance mechanisms. Methods Cell Culture
(§3) HL-60 (ATCC® CCL-240™), K562 (ATCC® CCL-243™), CCRF-CEM (ATCC® CRM-CCL-119™) and RL (ATCC® CRL-2261™) leukaemia cell lines, obtained from the American Type Culture Collection (ATCC), Middlesex. HL-60 and K562 cell lines are deoxynucleotidyl transferase-negative (TdT-ve), whereas CCRF-CEM cell line is TdT+ve.
(§4) HL-60, K562, CCRF-CEM and RL cell lines were cultured in RPMI-1640 medium (Sigma Aldrich, UK), which were supplemented with 10% Fetal Bovine Serum (FBS) (PAA Laboratories), 1% amphotericin B (5.5 ml) and 1% penicillin/streptomycin (5.5 ml) (PAA Laboratories) and grown in flasks at 37° C. incubator with 5% CO2.
(§5) The amount of ATP was used as a measurement of cell number and cell viability. ATP ViaLight™ plus assay kit (Lonza, USA: Product No. LT07-121) to detect ATP in cells treated in luminescence compatible 96 well plates (initial concentration of cells was 1×10^4 cells/well) with cordycepin and ProTides at concentrations of: 0, 0.1, 0.5, 1, 5 and 10 μM, followed by incubation for 72 hours at 37° C. incubator with 5% CO2. For inhibitor studies, 10 μM of NBTI or 1 μM EHNA or A-134974 was added and left for 5 minutes before adding the drugs (see section 5 for inhibitor details).
(§6) After incubation, 50 μl of cell lysis reagent was added to the 96 well plates to release the intracellular ATP, followed by 100 μl of ATP monitoring reagent (AMR). The luminescent values of each well were determined using FLUOstar OPTIMA microplate reader (BMG Labtech) which convert ATP into light by using luciferase enzyme. Therefore, the amount of luminescence produced was directly proportional to the amount of ATP.
(§7) Cell lines were treated in the same way as described above but before treatment with drugs, a number of inhibitors were added: • 1) Nitrobenzylthioinosine (NBTI) (Sigma-Aldrich, St. Louis, Mo., product # N2255) blocks nucleoside transporters • 2) EHNA hydrochloride (Sigma-Aldrich, St. Louis, Mo., product # E114) blocks adenosine deaminase • 3) Adenosine kinase inhibitor A-134974 dihydrochloride hydrate (Sigma-Aldrich, St. Louis, Mo., product # A2846): blocks adenosine kinase
(§8) The dose-response curves of cytotoxicity of the drugs was determined using non-linear regression analysis of percentage cell viability versus concentration and EC50 values were obtained. The intracellular assay was conducted in five replicates for each condition. Intracellular assay was determined using paired t test (two-tailed) analysis of 3′ATP/ATP concentration and p-values were obtained. For all the analysis, Prism Software program (GraphPad Software) was used and Microsoft Powerpoint® 2013 was used to plot the results.

[9] = test system: HL-60 (TdT negative); test: ATP (ViaLight plus) cytotoxicity assay; assay type: cell-based, Human; conditions: Homo sapiens, HL-60, 72 h
Description: as §2, §3, §4, §5, §6, §8

[10] = test system: K562 (TdT negative); test: ATP (ViaLight plus) cytotoxicity assay; assay type: cell-based, Human; conditions: Homo sapiens, K562, 72 h
Description: as §2, §3, §4, §5, §6, §8

[11] = test system: RL (CRL-2261); test: ATP (ViaLight plus) cytotoxicity assay; assay type: cell-based; conditions: 72 h, CRL (RL, CRL-2261)
Description: as §2, §3, §4, §5, §6, §7, §8

[12] = test system: CCRFCEM; test: Solid tumour and haematological malignancy assay (CellTiterGlo); assay type: cell-based; conditions: Homo sapiens, CCRF-CEM, 72 h; for IC50: read-out: IC50 (absolute IC50); for Emax: read-out: MI %
Description: (§9) In vitro viability assay were performed to assess the effects of compounds on cell viability in selected cell lines over 72 hr using the CellTiterGlo (CTG, Promega-G7573) assay. […] Cell viability assay using CellTiterGlo in 96-well plate were performed. Compound treatment 72 hrs, standard growth conditions, duplicates. Compounds were dissolved to 40 mM with thawed 100%. […] After compounds were dissolved in media, media containing compounds were warmed to 37° C. in incubator and then compounds in media were added to cell plates ([…]) in duplicates. […] All compound solubilities were checked and recorded again, then the plates were transferred to CO2 tissue culture incubator immediately and incubated for 3 days. DMSO final concentration is 0.5%.

[13] = test system: HEL92.1.7; test: as above; assay type: cell-based; conditions: Homo sapiens, HEL 92.1.7, 72 h; for IC50: read-out: IC50 (absolute IC50); for Emax: read-out: MI %
Description: as §9

[14] = test system: HL-60; test: as above; assay type: cell-based; conditions: Homo sapiens, HL-60, 72 h; for IC50: read-out: IC50 (absolute IC50); for Emax: read-out: MI %
Description: as §9

[15] = test system: HT29; test: as above; assay type: cell-based; conditions: Homo sapiens, HT-29, 72 h; for IC50: read-out: IC50 (absolute IC50); for Emax: read-out: MI %
Description: as §9

[16] = test system: HepG2; test: as above; assay type: cell-based; conditions: Homo sapiens, HepG2, 72 h; for IC50: read-out: IC50 (absolute IC50); for Emax: read-out: MI %
Description: as §9

[17] = test system: K562; test: as above; assay type: cell-based; conditions: Homo sapiens, K562, 72 h; for IC50: read-out: IC50 (absolute IC50); for Emax: read-out: MI %
Description: as §9

[18] = test system: KG-1; test: as above; assay type: cell-based; conditions: Homo sapiens, KG-1, 72 h; for IC50: read-out: IC50 (absolute IC50); for Emax: read-out: MI %
Description: as §9

[19] = test system: MCF7; test: as above; assay type: cell-based; conditions: Homo sapiens, MCF7, 72 h; for IC50: read-out: IC50 (absolute IC50); for Emax: read-out: MI %
Description: as §9

[20] = test system: MiaPaCa-2; test: as above; assay type: cell-based; conditions: Homo sapiens, MIA PaCa-2, 72 h; for IC50: read-out: IC50 (absolute IC50); for Emax: read-out: MI %
Description: as §9

[21] = test system: leukaemic stem cell (LSC) compartment within the KG1a cell line; test: Immunophenotypic identification of the leukaemic stem cell compartment; assay type: cell-based; conditions: 72 h; for LSC targeting compared with the parent nucleoside: for compound A at 1 mM and above
Description: KG1a cells were cultured for 72 h in the presence of a wide range of concentrations of each compound assayed. Cells were then harvested and labelled with a cocktail of anti-lineage antibodies (PE-cy7), anti-CD34 (FITC), anti-CD38 (PE) and anti-CD123 (PERCP cy5). The sub-population expressing a LSC phenotype were subsequently identified and were expressed as a percentage of all viable cells left in the culture. The percentages of stem cells remaining were then plotted on a dose-response graph and the effects of the compounds were compared with each other, and with the parent nucleoside.
The data obtained in these experiments were evaluated using one way ANOVA. All data was confirmed as Gaussian or a Gaussian approximation using the omnibus K2 test. LD50 values were calculated from the non-linear regression and line of best-fit analysis of the sigmoidal dose-response curves. All statistical analyses were performed using Graphpad Prism 6.0 software (Graphpad Software Inc., San Diego, Calif.).

SMILES | IC50 [12] [µM] | Emax [12] [%] | IC50 [13] [µM] | Emax [13] [%] | IC50 [14] [µM] | Emax [14] [%] | IC50 [15] [µM] | Emax [15] [%] | IC50 [16] [µM] | Emax [16] [%] | IC50 [17] [µM] | Emax [17] [%] | IC50 [18] [µM] | Emax [18] [%] | IC50 [19] [µM] | Emax [19] [%] | IC50 [20] [µM] | Emax [20] [%] | LSC targeting compared with the parent nucleoside [21] | other results
CCCCCOC(=O)[C@H](CC(C)C)NP(=O)(OC[C@@H]1C[C@@H](O)[C@H](n2cnc3c(N)ncnc32)O1)Oc1cccc2ccccc12 (mixture of isomers) [D, (2S)-pentyl 2-(((((2S,4R,5R)-5-(6-amino-9H-purin-9-yl)-4-hydroxytetrahydrofuran-2-yl)methoxy)(naphthalen-1-yloxy)phosphoryl)amino)-4-methylpentanoate] |  |  |  |  |  |  |  |  |  |  |  |  |  |  |  |  |  |  |  | IC50 [1]: 5 to 15 µM; IC50 [2]: 5 to 15 µM; IC50 [3]: 5 to 15 µM; IC50 [4]: 5 to 15 µM; IC50 [5]: 5 to 15 µM; IC50 [6]: 0.1 to 5 µM; IC50 [7]: 0.1 to 5 µM; (FD) fold difference compared to Cordycepin = Cordycepin IC50/ProTide IC50 [8]: (3); IC50 ([8]; Homo sapiens, CCRF-CEM, 72 h, 72 hours): 6.1 µM; IC50 [9]: 5.4 µM; IC50 [10]: 4.2 µM; IC50 [11]: 4.8 µM
C[C@H](NP(=O)(OC[C@@H]1C[C@@H](O)[C@H](n2cnc3c(N)nc(F)nc32)O1)Oc1ccccc1)C(=O)OCc1ccccc1 (mixture of isomers) [P, (2S)-benzyl 2-(((((2S,4R,5R)-5-(6-amino-2-fluoro-9H-purin-9-yl)-4-hydroxytetrahydrofuran-2-yl)methoxy)(phenoxy)phosphoryl)amino)propanoate] | 0.1 to 5 | 99 | 0.1 to 5 | 99 | 0.1 to 5 | 100 | 5 to 15 | 87 | 5 to 15 | 74 | 0.1 to 5 | 97 | 0.1 to 5 | 97 | 0.1 to 5 | 95 | 0.1 to 5 | 98 | significantly improved when compared with the parental nucleoside | 
C[C@H](NP(=O)(OC[C@@H]1C[C@H](O)[C@H](n2cnc3c(N)nc(F)nc32)O1)Oc1cccc2ccccc12)C(=O)OCc1ccccc1 (stereo partly drawn) [Compound O, 2-Fluoro-3′-deoxyadenosine-5′-O-[1-naphthyl(benzyloxy-L-alaninyl)] phosphate] | 0.1 to 5 | 99 | 0.1 to 5 | 100 | 0.1 to 5 | 101 | 15 to 100 | 84 | 5 to 15 | 83 | 0.1 to 5 | 99 | 5 to 15 | 99 | 0.1 to 5 | 95 | 0.1 to 5 | 100 | not significantly different to 2-F-Cordycepin | reduction of LSCs as a proportion of the cancer cells in culture (ability to target LSCs) ([21]; Lin−/CD34+/CD38−/CD123+): able to bring about a reduction in the proportion of LSCs
CCCCCOC(=O)[C@H](CC(C)C)NP(=O)(OC[C@@H]1C[C@H](O)[C@H](n2cnc3c(N)nc(F)nc32)O1)Oc1cccc2ccccc12 (stereo partly drawn) [Compound Q, 2-Fluoro-3′-deoxyadenosine-5′-O-[1-naphthyl(1-pentyloxy-L-leucinyl)] phosphate] | 0.1 to 5 | 101 | 0.1 to 5 | 99 | 0.1 to 5 | 99 | 15 to 100 | 88 | 0.1 to 5 | 94 | 0.1 to 5 | 100 | 5 to 15 | 103 | 0.1 to 5 | 99 | 0.1 to 5 | 100 | significantly improved when compared with the parental nucleoside | 
